What was measured:
TYK2 = TYK2 (Homo sapiens, UniProt P29597); assay: experiment of inhibiting kinase activity, TYK2; assay type: biochemical; conditions: read-out: inhibition rate TYK2; for inhibition at 0.01 µM: at 10 nM; for inhibition at 0.1 µM: at 100 nM
Procedure: The inhibition rates of tested compounds on JAK1, JAK2, JAK3, TYK2, CDK7, CDK9, EGFR (T790M) and LRRK2 kinases were measured. The test concentrations of the compounds were 10 nM and 100 nM, and the detection was performed by replicate wells. Alternatively, compounds were 3-fold serial diluted from 10 µM for 10 concentrations in replicate wells.

HCC-1187 cells = assay: CDK9 cell activity test (Cell Titer-GLO cell growth inhibition), HCC1187; assay type: cell-based; conditions: Homo sapiens, HCC1187, 72 h
Procedure: (§1) In these experiments, the cell line MV-4-11 was cultured in IMDM culture solution (containing 100 U/mL penicillin and 0.1 g/L streptomycin), the cell line HCC1187 was cultured in RPMI-1640 culture solution (containing 100 U/mL penicillin and 0.1 g/L streptomycin) containing 10% fetal bovine serum, the cell line Mia Paca-2 was cultured in DMEM (containing 100 U/mL penicillin and 0.1 g/L streptomycin) containing 10% fetal bovine serum and 2.5% horse serum, and the cell line A375 was cultured in RPMI-1640 culture solution (containing 100 U/mL penicillin and 0.1 g/L streptomycin) containing 10% fetal bovine serum. All cells were cultured in a saturated humidity incubator with 37 °C and 5% CO2.
(§2) When MV-4-11 cells, HCC-1187 cells, Mia Paca-2 cells and A375 cells grew to 80% -90% confleuncy, they were digested with trypsin, resuspended, counted and diluted to a certain cell density with complete medium, and inoculated into 96-well plate at 100 µL/well. […] The cells were lysed by mixing evenly for 2 minutes using a shaker, incubated at room temperature for 60 minutes to stabilize the chemiluminescence signal, and the chemiluminescence was read by PE EnVision microtiter plate reader. The cell growth inhibition rate Inh%=(DMSO well - compound treatment well)/(DMSO well - background well)×100 was calculated, and the cell growth IC50 value was obtained by fitting with GraphPad Prism 5 .

MV-4-11 cells = assay: CDK9 cell activity test (Cell Titer-GLO cell growth inhibition), MV-4-11; assay type: cell-based; conditions: Homo sapiens, MV4-11, 72 hours
Procedure: as §1
When MV-4-11 cells, HCC-1187 cells, Mia Paca-2 cells and A375 cells grew to 80% -90% confleuncy, they were digested with trypsin, resuspended, counted and diluted to a certain cell density with complete medium, and inoculated into 96-well plate at 100 µL/well. With complete medium as background control, they were cultured overnight in a saturated humidity incubator with 37°C and 5% CO2. The compound was diluted to 200-fold of the final concentration using DMSO, 3 µL of DMSO storage solution of the above compound was added to 197 µL of complete medium, 50 µL of compound diluted in medium was added to cells in each well, and cultivated in a saturated humidity incubator with 37°C and 5% CO2 for 72 hours. After 72 hours, the culture plate was placed at room temperature for equilibrium, and 40 µl of Cell Titer-GLO® reagent was added to each well. The cells were lysed by mixing evenly for 2 minutes using a shaker, incubated at room temperature for 60 minutes to stabilize the chemiluminescence signal, and the chemiluminescence was read by PE EnVision microtiter plate reader. The cell growth inhibition rate Inh%=(DMSO well - compound treatment well)/(DMSO well - background well)×100 was calculated, and the cell growth IC50 value was obtained by fitting with GraphPad Prism 5 .

A375 cells = assay: CDK9 cell activity test (Cell Titer-GLO cell growth inhibition), A375; assay type: cell-based; conditions: Homo sapiens, A-375, 72 hours
Procedure: as §1, §2

JAK3 = target: T1, JAK3 (Mus musculus, UniProt Q62137); assay: JAKs cell activity test: JAK3_pSTAT5 in IL-2-induced CTLL-2 cells; assay type: cell-based; conditions: pSTAT5, IL-2-induced CTLL-2 cells
T1 construct: endogenous in cells; host or cells: CTLL-2
T1 sequence (Q62137 1-1100): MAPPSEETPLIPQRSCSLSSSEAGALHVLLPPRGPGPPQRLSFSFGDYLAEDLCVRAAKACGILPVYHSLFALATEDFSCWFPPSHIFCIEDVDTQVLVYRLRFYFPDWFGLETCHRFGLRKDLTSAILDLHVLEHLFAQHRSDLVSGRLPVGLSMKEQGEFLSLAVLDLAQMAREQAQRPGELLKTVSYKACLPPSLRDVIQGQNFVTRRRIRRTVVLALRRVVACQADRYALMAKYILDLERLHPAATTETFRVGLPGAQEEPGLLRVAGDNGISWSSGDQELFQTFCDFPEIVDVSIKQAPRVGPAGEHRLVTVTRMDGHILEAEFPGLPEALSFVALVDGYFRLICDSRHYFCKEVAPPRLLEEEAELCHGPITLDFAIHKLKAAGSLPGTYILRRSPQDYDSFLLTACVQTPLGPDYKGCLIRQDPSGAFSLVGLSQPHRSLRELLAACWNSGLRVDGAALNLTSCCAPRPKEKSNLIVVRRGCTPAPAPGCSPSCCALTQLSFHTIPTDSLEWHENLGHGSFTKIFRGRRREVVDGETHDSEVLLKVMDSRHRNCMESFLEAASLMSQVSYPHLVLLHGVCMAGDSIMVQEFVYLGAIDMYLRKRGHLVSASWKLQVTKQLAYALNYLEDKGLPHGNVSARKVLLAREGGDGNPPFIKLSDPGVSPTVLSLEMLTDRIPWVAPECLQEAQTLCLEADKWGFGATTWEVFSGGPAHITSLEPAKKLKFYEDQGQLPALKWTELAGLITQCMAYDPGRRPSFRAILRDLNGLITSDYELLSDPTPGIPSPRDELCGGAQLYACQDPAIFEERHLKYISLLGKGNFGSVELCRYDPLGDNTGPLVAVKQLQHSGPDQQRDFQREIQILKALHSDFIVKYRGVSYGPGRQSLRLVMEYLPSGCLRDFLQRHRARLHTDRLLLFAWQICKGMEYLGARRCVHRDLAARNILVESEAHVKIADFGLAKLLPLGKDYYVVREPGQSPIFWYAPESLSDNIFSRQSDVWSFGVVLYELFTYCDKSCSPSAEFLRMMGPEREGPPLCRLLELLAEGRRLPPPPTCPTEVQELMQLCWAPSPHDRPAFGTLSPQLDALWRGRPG
Procedure: THP1 cells were collected by centrifugation, resuspended with 1×HBSS, counted and diluted to a certain cell density. They were inoculated in a 384-well plate and cultured in a saturated humidity incubator with 37 °C and 5% CO2. The compound (DMSO final volume of 0.3%) was added to THP1 cells (10 doses in duplicates) and cultured in a saturated humidity incubator with 37 °C and 5% CO2. hIL-4 was added to stimulate cells and cultured in a saturated humidity incubator with 37 °C and 5% CO2. The lysis solution was added and incubated at room temperature. According to the instructions of AlphaLISA SureFire Ultra p-STAT6 detection kit, the lysis solution was transferred to pSTAT6 detection system, and the ALPHA signal was read by PE Envision microplate reader. The inhibition rate Inh%=((DMSO-sample)/(DMSO-background))×100 was calculated. IC50 was obtained by fitting with GraphPad Prism non-linear regression equation, and y=Bottom+(Top-Bottom)/(1+10^((LogIC50-x)×hillslope)), where x was the concentration of the compound and y was the inhibition rate.
JAK2_pSTAT5 was tesed in IL-3-induced BAF3 cells according to the above steps, and JAK3_pSTAT5 was tested in IL-2-induced CTLL-2 cells (without serum stimulation) according to the above steps.

Sequence of TYK2 (P29597 whole entry): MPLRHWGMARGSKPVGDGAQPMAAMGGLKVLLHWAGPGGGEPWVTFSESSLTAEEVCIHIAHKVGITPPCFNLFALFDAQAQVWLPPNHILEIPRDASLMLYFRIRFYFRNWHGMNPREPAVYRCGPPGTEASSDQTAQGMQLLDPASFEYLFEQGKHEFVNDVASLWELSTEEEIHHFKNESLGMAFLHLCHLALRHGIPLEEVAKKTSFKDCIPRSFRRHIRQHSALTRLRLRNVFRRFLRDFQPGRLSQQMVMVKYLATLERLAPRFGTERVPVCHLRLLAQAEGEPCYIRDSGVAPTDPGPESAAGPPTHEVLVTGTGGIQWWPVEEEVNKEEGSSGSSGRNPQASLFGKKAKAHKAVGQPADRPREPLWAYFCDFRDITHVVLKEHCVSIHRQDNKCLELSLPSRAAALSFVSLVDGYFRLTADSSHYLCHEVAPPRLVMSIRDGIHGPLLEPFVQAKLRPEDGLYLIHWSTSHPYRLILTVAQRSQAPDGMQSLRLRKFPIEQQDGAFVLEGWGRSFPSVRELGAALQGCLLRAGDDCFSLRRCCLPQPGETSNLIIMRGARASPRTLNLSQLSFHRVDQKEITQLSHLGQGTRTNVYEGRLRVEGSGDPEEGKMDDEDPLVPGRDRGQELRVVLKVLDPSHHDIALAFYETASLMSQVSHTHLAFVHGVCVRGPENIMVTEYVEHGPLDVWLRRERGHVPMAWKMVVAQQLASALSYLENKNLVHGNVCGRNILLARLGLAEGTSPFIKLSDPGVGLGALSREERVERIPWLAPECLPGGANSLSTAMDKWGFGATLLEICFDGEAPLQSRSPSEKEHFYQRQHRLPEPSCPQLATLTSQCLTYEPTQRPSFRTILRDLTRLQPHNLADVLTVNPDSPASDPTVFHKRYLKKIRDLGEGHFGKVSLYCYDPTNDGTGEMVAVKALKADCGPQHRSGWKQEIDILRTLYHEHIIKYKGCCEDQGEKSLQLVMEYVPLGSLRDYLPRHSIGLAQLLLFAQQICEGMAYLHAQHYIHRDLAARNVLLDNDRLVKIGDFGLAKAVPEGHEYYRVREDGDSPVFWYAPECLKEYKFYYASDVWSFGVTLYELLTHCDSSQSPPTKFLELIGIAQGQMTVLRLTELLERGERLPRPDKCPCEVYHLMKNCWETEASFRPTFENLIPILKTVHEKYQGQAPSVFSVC

Row | Compound | inhibition at 0.01 µM (TYK2) [%] | inhibition at 0.1 µM (TYK2) [%] | IC50 (HCC-1187 cells; first HCC1187 column (c2)) [nM] | IC50 (HCC-1187 cells; second HCC1187 column (c3)) [nM] | IC50 (MV-4-11 cells) [nM] | IC50 (A375 cells) [nM] | EC50 (JAK3) [nM]
1 | CN1CCOCCOc2cc(Nc3ncc(F)c(-c4ccc(C(=O)NCC#N)cc4)n3)ccc2OCC1 [Example 16, N-(cyanomethyl)-4-(5-fluoro-2-((7-methyl-2,3,6,7,8,9-hexahydro-5H-benzo[b][1,4,7]trioxa[10]azacyclododecan-13-yl)amino)pyrimidin-4-yl)benzamide] | 40 to 79 | > 80 | 1000 to 5000 | 100 to 1000 | < 100 | 100 to 1000 | –
2 | CN1CCOCCOc2cc(Nc3nc(-c4cnn(C(CC#N)C5CCCC5)c4)c4cc[nH]c4n3)ccc2OCC1 (stereo not shown) [Example 26, 3-cyclopentyl-3-(4-(2-((7-methyl-2,3,6,7,8,9-hexahydro-5H-benzo[b][1,4,7]trioxa[10]azacyclododecan-13-yl)amino)-7H-pyrrolo[2,3-d]pytimidin-4-yl)-1H-pyrazol-1-yl)propionitrile] | > 80 | > 80 | – | – | – | – | 500 to 5000
3 | CCS(=O)(=O)N1CC(CC#N)(n2cc(-c3nc(Nc4ccc5c(c4)OCCN(C)CCO5)nc4[nH]ccc34)cn2)C1 [Example 28, 2-(1-(ethylsulfonyl)-3-(4-(2-((4-methyl-3,4,5,6-tetrahydro-2H-benzo[b][1,4,7]dioxazolin-9-yl)amino)-7H-pyrrolo[2,3-d]pytimidin-4-yl)-1H-pyrazol-1-yl)azetidin-3-yl) acetonitrile] | – | – | – | – | – | – | < 50

Source: patent EP4592286A1, “MACROCYCLIC NITROGEN-CONTAINING CROWN ETHER COMPOUND AND USE THEREOF AS PROTEIN KINASE INHIBITOR” (Artivila Biopharma, priority 2022, dated 2024)
